Assays:
[1] = test system: tobacco Mosaic virus (TMV); test: Live protection function against tobacco Mosaic virus (TMV); assay type: in vivo; settings: for Relative inhibition rate, live protection function: 500 mg/L, tobacco Xanthi nc, sprayed 24 h before inoculation, virus 10 μg/mL, 3 days; for inhibition at 500 µg/mL: Tobacco mosaic virus, read-out: Relative inhibition rate, live protection function
Experimental: (§1) Determination of anti-tobacco Mosaic virus (TMV) activity by the following procedure:
(§2) After weighing, cryptolepine salt derivative, ningnanmycin and the original drug of ribavirin were dissolved in DMF to obtain 1×10^5 μg/mL mother solution, and then diluted to the required concentration with 1%. Tween 80 aqueous solution.
(§3) Select the 3-5 leaf stage of tobacco Xanthi nc with uniform growth, spray the whole plant, repeat each treatment 3 times, and set 1%. Tween80 aqueous solution as control. 24 h later, the leaf surface was coated with emery (500 mesh), the disease venom was dipped with a brush, and the whole leaf surface was gently rubbed twice along the direction of the branch pulse by using the brush, the leaf was supported by palm of hand, the virus concentration was 10 μg/mL, and the leaf was washed by water after inoculation. After 3 days, the number of disease spots was recorded and the prevention and control effect was calculated.
(§4) Relative inhibition rate (%)=[(number of dead spots of control group-number of dead spots of test sample group)/number of dead spots of control group]×100%.

[2] = test system: tobacco Mosaic virus (TMV); test: Live treatment effect against tobacco Mosaic virus (TMV); assay type: in vivo; settings: 500 mg/L, tobacco Xanthi nc, sprayed after inoculation, virus 10 μg/mL, 3 days; for inhibition at 500 µg/mL: Tobacco mosaic virus, 72 h, read-out: Relative inhibition rate, live treatment effect
Experimental: as §1, §2
(§5) Select the 3-5 leaf stage of tobacco Xanthi nc with uniform growth, use a brush to vaccinate the virus in the whole leaf, the virus concentration is 10 μg/mL, and the leaf was washed with running water after inoculation. After the leaves were dried, the whole plant was sprayed with test sample, repeated 3 times every treatment, and 1%. Tween 80 aqueous solution was set as control. After 3 days, the number of disease spots was recorded and the prevention and control effect was calculated.
as §4

[3] = test system: tobacco Mosaic virus (TMV); test: Living passivation activity test against tobacco Mosaic virus (TMV); assay type: in vivo; settings: 500 mg/L, tobacco Xanthi nc, sample mixed with virus juice 30 min, virus 20 μg/mL, 3 days; for inhibition at 500 µg/mL: Tobacco mosaic virus, read-out: Relative inhibition rate, living passivation activity test
Experimental: as §1, §2
(§6) Select the 3-5 leaf stage of tobacco Xanthi nc with uniform growth, mix the test sample agent with the same volume of virus juice to passivate for 30 min, friction inoculation, virus concentration 20 μg/mL, the leaf was washed with running water after inoculation, repeat 3 times, set 1%. Tween 80 aqueous solution as control. 3 days later, the number of disease spots was calculated.
as §4
(§7) Anti-tobacco Mosaic virus passivation activity test of all compounds was at a treatment dose of 500 μg/mL. The positive control was the commercial anti-plant virus agent viriazole.

rice sheath blight = test: Test of resistance to rice sheath blight (bactericidal activity test); assay type: in vivo; settings: for Resistance to rice sheath blight: 400 mg/L, rice seedlings, sprayed 24 h before inoculation, 6 days after inoculation, visual inspection; for bactericidal activity against rice sheath blight: live pot test, Table 5, 400 mg/L
Experimental: Bactericidal activity test, the determination procedure is as follows:
Test of resistance to rice sheath blight: Select uniformly growing rice seedlings and spray them on the leaves at the set concentration, set a water spraying group as blank control, every treatment was repeated twice. After 24 h, the rice seedlings were inoculated with rice sheath blight strains and placed at room temperature (25±4° C.) for normal management after inoculation. The prevention and control effect was investigated by visual inspection 6 days after inoculation.

[4] = test system: tobacco Mosaic virus (TMV); test: Anti-tobacco Mosaic virus (TMV) activity, overall comparison of Test Example 1; assay type: in vivo; settings: 500 μg/mL; Table 4
Experimental: as §1, §2, §3, §5, §6, §4, §7

Plasmodium falciparum = settings: cited from earlier work

Compound	Resistance to rice sheath blight (rice sheath blight)	inhibition at 500 µg/mL [1]	inhibition at 500 µg/mL [2]	inhibition at 500 µg/mL [3]	TMV activity compared with ribavirin [4]	also measured
Cc1ccc(S(=O)(=O)n2c3ccc(F)cc3c3c2cc2ccccc2[n+]3C)cc1 [Example 4]	60 ± 0%					Relative inhibition rate, live protection function [1]: 21.6 ± 3.4%; Relative inhibition rate, live treatment effect [2]: 18.6 ± 1.2%; Relative inhibition rate, living passivation activity test [3]: 14.1 ± 1.3%; bactericidal activity against rice sheath blight (rice sheath blight): more than 50%
Cc1ccc(S(=O)(=O)n2c3ccc(I)cc3c3c2cc2ccccc2[n+]3C)cc1.[Cl-] [Example 7]	40 ± 0%	44.5 ± 0.4%	43 ± 3.5%	47.7 ± 3.1%	better TMV activity than the ribavirin	
CCCCCNc1c2ccccc2[n+](C)c2c1[nH]c1ccccc12 [Example 24]	30 ± 0%	36.9 ± 3.7%	30.3 ± 0.8%	35.2 ± 1%		
CCCCCCCCCCCCNc1c2ccccc2[n+](C)c2c1[nH]c1ccccc12 [Example 25]	20 ± 0%	27.3 ± 3%	22.1 ± 1.1%	35.1 ± 0.1%		
C[n+]1c2ccccc2c(NC2CCCC2)c2[nH]c3ccccc3c21 [Example 29]	30 ± 0%					Relative inhibition rate, live protection function [1]: 38.6 ± 4.6%; Relative inhibition rate, live treatment effect [2]: 36.5 ± 2.3%; Relative inhibition rate, living passivation activity test [3]: 30.5 ± 0.9%
C[n+]1c2ccccc2c(NCCCN)c2[nH]c3ccccc3c21.[I-] [Example 33]	40 ± 0%	57.9 ± 4.6%	51.7 ± 3.6%	49.8 ± 3.1%	better TMV activity than the ribavirin	anti-TMV activity compared with commercial Ningnanmycin [4]: comparable to that of commercial Ningnanmycin
C[n+]1c2ccccc2c(NC2CCNCC2)c2[nH]c3ccccc3c21.[I-] [Example 41]	40 ± 0%				better TMV activity than the ribavirin	
C[n+]1c2ccccc2c(NCC2CCNCC2)c2[nH]c3ccccc3c21.[I-] [Example 42]	25 ± 5%	28.1 ± 3%	30.2 ± 2.1%	25.1 ± 0.2%		
CN1CCCC(CNc2c3ccccc3[n+](C)c3c2[nH]c2ccccc23)C1 (stereo not drawn) [Example 46]	30 ± 0%				better TMV activity than the ribavirin	
C[n+]1c2ccccc2c(NCCCN2CCCCC2)c2[nH]c3ccccc3c21 [Example 47]	45 ± 5%					Relative inhibition rate, live protection function [1]: 36.4 ± 2.8%; Relative inhibition rate, live treatment effect [2]: 33.3 ± 2.0%; Relative inhibition rate, living passivation activity test [3]: 35.7 ± 0.3%; bactericidal activity against rice sheath blight (rice sheath blight): more than 50%
Cn1c2c3ccccc3nc-2cc2ccccc21 [cryptolepine]						activity against Plasmodium falciparum compared with Chloroquine (Plasmodium falciparum): comparable activity against Plasmodium falciparum to Chloroquine
